“And” between values parts separate entries of the source, which are not always exact repeats. Equal values may be shown once. Read-outs that look alike come from different tables or passages of the source.
Legend:
[1] = test system: caspase-3; settings: for sevoflurane-induced caspase-3 activation, percentage of control (100%): sevoflurane alone 356%; for caspase-3 activation, fold of control (1-fold): 3% sevoflurane for 6 h, FIG. 4B
From the text: (§1) The animal protocol was approved by the Standing Committee on Animals at Massachusetts General Hospital (Boston, Mass.). Naive mice (C57BL/6J mice [The JacksonLaboratory, Bar Harbor, Me.]) and Alzheimer's disease (AD) transgenic mice (B6.Cg-Tg[APPswe, PSEN1dE9]85 Dbo/J, [The Jackson Laboratory]) were distinguished by genotyping. All animals (3-12 mice per experiment) were 6 days old at the time of anesthesia and were randomized by weight and gender into experimental groups that received either 3 or 2.1% sevoflurane plus 60% oxygen for either 6 or 2 h, and control groups received 60% oxygen for 6 or 2 h at identical flow rates in identical anesthetizing chambers. […] Anesthetic and oxygen concentrations were measured continuously (Datex, Tewksbury, Mass.), and the temperature of the anesthetizing chamber was controlled to maintain the rectal temperature of the mice at 37°±0.5° C. In the interaction studies, the inositol trisphosphate receptor (IP3R) antagonist 2-aminoethoxydiphenyl borate (2-APB) (5 and 10 mg/kg) was administered to the mice via intraperitoneal injection 10 min before the anesthetic was administered. 2-APB was first dissolved in dimethyl sulfoxide to 20 μg/μl and then diluted with saline to 0.25 μg/μl (1:80 dilution) and to 0.5 μg/μl (1:40 dilution).
(§2) Immediately after sevoflurane anesthesia, the mouse was decapitated, and the brain cortex was harvested. The brain tissues were homogenized in an immunoprecipitation buffer (10 mM Tris-HCl, pH 7.4, 150 mM NaCl, 2 mM ethylenediaminetetraacetic acid, and 0.5% Nonidet P-40) plus protease inhibitors ([1 μg/ml aprotinin, 1 μg/ml leupeptin, and 1 μg/ml pepstatin A]; [Roche, Indianapolis, Ind.]). The lysates were collected, centrifuged at 13,000 rpm for 15 min, and quantified for total proteins by using the bicinchoninic acid protein assay kit (Pierce, Iselin, N.J.).
(§3) The harvested brain tissues were subjected to Western blots as described by Xie et al. (16). Briefly, 60 μg of each lysate was separated on sodium dodecyl sulfate polyacrylamide gel electrophoresis gels and transferred to polyvinylidene difluoride blots (Bio-Rad, Hercules, Calif.) using a semidry electrotransfer system (Amersham Biosciences, San Francisco, Calif.). The blot was incubated overnight at 4° C. with primary antibodies, followed by washes and incubation with appropriate secondary antibodies, and visualized with a chemoluminescence system. A caspase-3 antibody (1:1,000 dilution; Cell Signaling Technology, Danvers, Mass.) was used to recognize the caspase-3 fragment (17-20 kDa) resulting from cleavage at aspartate position 175 and fulllength (FL) caspase-3 (35-40 kDa). TNF-α levels were recognized by antibody ab6671 (26 kDa; 1:1,000; Abcam, Cambridge, Mass.). The antibody to nontargeted protein β-actin was used to control for loading differences in total protein amounts. The figures showing blots with only the caspase-3 fragment are the same Western blots with extended exposure time during the development of the film. The signal of the Western blot band was detected using Molecular Imager VersaDoc MP 5000 System (Bio-Rad). The intensity of signals was analyzed using a Bio-Rad image program (Quantity One) and a National Institutes of Health Image Version 1.37 (National Institutes of Health, Bethesda, Md.). Western blots were quantified using two steps. First, levels of β-actin was used to normalize (e.g., determining the ratio of FL caspase-3 amount to β-actin amount) the levels of proteins to control for loading differences in total protein amounts.

[2] = test system: Aβ; settings: 2-APB (10 mg/kg, FIG. 7D) before 3% sevoflurane for 6 h; neonatal naïve mice; sevoflurane alone 304%; P=0.042
From the text: as §1
(§4) Data were expressed as mean±SD.

[3] = test system: primary neurons from naïve (C57BL/6) mice; settings: propofol before 2% isoflurane, gestation day 15, FIG. 12
Description: (§5) To this end, H4 human neuroglioma cells stably transfected to express human full-length wild-type APP (H4-APP cells) in cell culture media with […] Aβ40, Aβ42 or Aβ40 plus Aβ42, were treated with an clinically relevant concentration of propofol (e.g., 100 μM) for one hour, and then with 2% isoflurane (plus 21% O2 and 5% CO2) for six hours. Wild-type H4 human neuroglioma cells (H4 naïve cells) and primary neurons from naïve (C57BL/6) mice were also used in the study for comparison. To obtain primary neurons, naïve (C57BL/6) mice with gestation stage of day 15 were euthanized with CO2. The primary neurons were harvested from the embyros. The harvested neurons were cultured for 7 to 10 days prior to treatment.
(§6) Anesthesia machine was used for the delivery of 2% isoflurane to the cells or neurons plated in a six well plate in a sealed plastic box located in a 37° C. incubator and Datex infrared gas analyzer was used for the monitoring (FIGS. 9A to 9C). The cells and the cell culture media were harvested at the end of the treatment. Caspase-3 activation and Aβ oligomerization were measured with quantitative Western blotting. Chemiluminescence signal from the western blot membranes was captured using a VersaDoc Imaging System and images were analyzed using Quantity One software (BioRad Hercules, Calif.).
(§7) Apoptosis is a programmed cell death requiring cysteine proteases called caspases, and caspase-3 activation is one of the final steps of apoptosis. Thus, a caspase-3 antibody (Cell Signaling, Danvers, Mass.) was used to recognize full-length (35 kDa), and the large fragment of cleaved caspase-3 (17-20 kDa).

[4] = test system: H4-APP cells
Description: as §5, §6, §7

[5] = test system: H4 naïve cells; settings: propofol before 2% isoflurane, FIG. 11
Description: as §5, §6, §7

[6] = test system: Aβ40 and Aβ42 oligomerization
Description: as §5, §6
In addition to the propofol effects on caspase-3 activation, its effects on Aβ oligomerization were assessed. H4-APP cell culture media were exposed to 2% isoflurane with and without 100 μM propofol for six hours. Antibody mAb 6E10 (1:3,000, Sigma) was used to detect Aβ40 and Aβ42 oligomerization.

[7] = test system: amyloid precursor protein (APP); settings: mouse, in vivo
From the text: as §1, §2, §3

[8] = test system: TUNEL-positive cells (apoptosis) in the brain tissues; assay: TUNEL staining of brain sections of neonatal mice; assay type: in vivo; settings: 3% sevoflurane plus 60% oxygen for 6 h, FIG. 5B
Description: Terminal Deoxynucleotidyl Transferase dUTP Nick End Labeling Staining Assay. […] The mouse brain tissues were removed and exposed to immersion fixation for 24 h at 4° C. in 4% paraformaldehyde, and then 5-μm paraffin-embedded sections were made from the brain tissues. TMRred kit (Roche, Palo Alto, Calif.) was used for terminal deoxynucleotidyl transferase dUTP nick end labeling (TUNEL) staining. Briefly, the brain sections were incubated in a permeabilization solution and then incubated with a TUNEL reaction mixture. Finally, the sections were incubated with 10 μg/ml Hoechst 33342 in a humidified dark chamber. The sections from the same brain areas between control group mice and the sevoflurane-treated mice were then analyzed in a mounting medium under a fluorescence microscope. The TUNEL-positive cells and total cells in five areas of the brain section from each of the mice in the experiments were counted blind-fold under a 20× objective microscope lens. For the double immunocytochemistry staining to identify the cell type of the TUNEL-positive cells, the mouse brain tissues were quickly removed after sevoflurane anesthesia, put into a container with dry ice and ethanol, and then kept in a −80° C. freezer. Five-micrometer frozen sections were cut using a cryostat. […] Finally, the sections were mounted and immediately viewed using a fluorescence microscope.
as §4

[9] = Mortality of neonatal mice after sevoflurane anesthesia; assay type: in vivo; settings: 6-day-old mice
Description: Naive mice (C57BL/6J mice [The JacksonLaboratory, Bar Harbor, Me.]) and Alzheimer's disease (AD) transgenic mice (B6.Cg-Tg[APPswe, PSEN1dE9]85 Dbo/J, [The Jackson Laboratory]) were distinguished by genotyping. All animals (3-12 mice per experiment) were 6 days old at the time of anesthesia and were randomized by weight and gender into experimental groups that received either 3 or 2.1% sevoflurane plus 60% oxygen for either 6 or 2 h, and control groups received 60% oxygen for 6 or 2 h at identical flow rates in identical anesthetizing chambers. […] The high concentration of sevoflurane anesthesia was used to illustrate the difference of sevoflurane-induced neurotoxicity between neonatal naïve and AD transgenic mice. […] Anesthetic and oxygen concentrations were measured continuously (Datex, Tewksbury, Mass.), and the temperature of the anesthetizing chamber was controlled to maintain the rectal temperature of the mice at 37°±0.5° C.

[10] = test system: apoptosis in the developing rat brain; settings: intraventricular injection, Wei and Xie, 6 Curr. Alzheimer Res. 30 (2009); cited from earlier work

NCCOB(c1ccccc1)c1ccccc1 [2-APB, 2-aminoethoxydiphenyl borate]
sevoflurane-induced caspase-3 activation, percentage of control (100%) ([1]; 5 mg/kg 2-APB i.p. 10 min before 3% sevoflurane for 6 h, neonatal naïve mice, P=0.001): 149% | sevoflurane-induced caspase-3 activation, percentage of control (100%) ([1]; 10 mg/kg 2-APB i.p. 10 min before 3% sevoflurane for 6 h, neonatal naïve mice, P=0.005): 115% | sevoflurane-induced increase in Aβ levels, percentage of control [2]: 157%

CC(C)c1cccc(C(C)C)c1O [propofol, 2,6-diisopropylphenol]
effect on isoflurane-induced caspase-3 activation [3]: did not attenuate | effect on isoflurane-induced caspase-3 activation ([4]; 100 μM propofol for one hour prior to 2% isoflurane for six hours, H4-APP cells, FIG. 10): attenuated isoflurane-induced caspase-3 activation | caspase-3 activation by propofol alone ([4]; propofol alone, no isoflurane): did not induce | effect on isoflurane-induced caspase-3 activation [5]: did not attenuate | effect on isoflurane-induced Aβ40 (oligomerization) ([6]; 100 μM propofol for one hour prior to 2% isoflurane, H4-APP cells, FIG. 14B): attenuated | effect on isoflurane-induced Aβ42 (oligomerization) ([6]; 100 μM propofol for one hour prior to 2% isoflurane, H4-APP cells, FIG. 14C): attenuated | Aβ oligomerization by propofol alone ([6]; propofol alone, no isoflurane): did not induce

FCOC(C(F)(F)F)C(F)(F)F [sevoflurane]
caspase-3 activation, percentage of control (100%) ([1]; 2.1% sevoflurane for 6 h, neonatal AD transgenic mice, FIG. 2D, P=0.045): 178% | caspase-3 activation, percentage of control (100%) ([1]; 2.1% sevoflurane for 6 h, neonatal naïve mice, FIG. 2B, P=0.002): 183% | caspase-3 activation, percentage of control (100%) ([1]; 3% sevoflurane for 2 h, neonatal naïve mice, FIG. 3B, P=0.074 (did not increase)): 128% | caspase-3 activation, fold of control (1-fold) ([1]; neonatal AD transgenic mice): 2.45 fold and 2.13 fold | caspase-3 activation, fold of control (1-fold) ([1]; neonatal naïve mice, P=0.003): 1.48 fold | caspase-3 activation, percentage of control (100%) ([1]; 3% sevoflurane for 6 h alone, neonatal naïve mice, 2-APB interaction study, FIG. 7B, P=0.002): 356% | increase in caspase-3 cleavage (activation), ratio of cleaved caspase-3 fragment to FL-caspase-3, compared with control ([1]; 3% sevoflurane plus 60% oxygen for 6 h, 6-day-old neonatal naïve mice, FIG. 1B, P=0.009): 242% | decrease in the ratio of APP-C83 to APP-FL compared with control [7]: 45% | decrease in the ratio of APP-C99 to APP-FL compared with control [7]: 33% | TUNEL-positive cells (apoptosis), fold of control (1-fold) ([8]; neonatal AD transgenic mice): 2.13 fold and 2.45 fold | TUNEL-positive cells (apoptosis), fold of control (1-fold) ([8]; neonatal naïve mice, P=0.001): 2.08 fold | death of the mice ([9]; 2.1% sevoflurane): did not cause the death of the mice | mortality rate of the mice ([9]; 3% sevoflurane plus 60% oxygen for 6 h): 10-15%

C1CCC[C@H]2CCCN3CC[C@@H](CCCCCC[C@@H]4CCCN5CC[C@@H](CC1)O[C@@H]45)O[C@@H]23 [xestospongin C]
effect on isoflurane-induced apoptosis [10]: inhibits isoflurane-induced apoptosis
